Laboratory results from US20220062296A1, “COMBINATIONS OF GABAA ALPHA 5 AGONISTS AND SV2A INHIBITORS AND METHODS OF USING IN THE TREATMENT OF COGNITIVE IMPAIRMENT” (AGENEBIO, INC., priority 2020, published 2022).

Tests used:
[1] = system: entorhinal cortex of aMCI subjects; test: fMRI activity in entorhinal cortex (EC) during explicit 3-alternative forced choice task; assay type: in vivo, human; details: levetiracetam 125 mg twice a day for two weeks
Description: A within-subjects trial of 8 weeks duration, involving 17 amnestic MCI (aMCI) subjects and 17 age-matched controls with a low dose treatment of levetiracetam is conducted. During the course of the study, each aMCI subject receives both drug and placebo treatments separately in two periods of two weeks each, with the order of treatments among different aMCI subjects counterbalanced (see FIG. 4). Age-matched control subjects treated with placebo serve as a further control. Cognitive testing and fMRI imaging data are obtained from the subjects after each two-week period of drug/placebo treatment. Imaging data are obtained through high-resolution methods developed in the Stark laboratory. Data are collected on a Phillips 3 Tesla scanner (Eindhoven, The Netherlands) equipped with an 8-channel SENSE (Sensitivity Encoding) head coil, located at the F.M. Kirby Research Center for Functional Brain Imaging at the Kennedy Krieger Institute (Baltimore, Md.). […] Group data are analyzed using a two-way Analysis of Variance (ANOVA) with trial types and group as fixed factors, and subject as a random factor nested within group. […] The activity of the subject's medial temporal lobe is measured by functional MRI during the subject's participation in an explicit 3-alternative forced choice task, where participants view novel, repeated and similar (“lure”) stimuli. […]

aMCI subjects = test: Neuropsychological tests (Buschke Selective Reminding, Benton Visual Retention, Verbal Paired Associates); assay type: in vivo, human; details: levetiracetam 125 mg twice a day for two weeks
Excerpt: All participants undergo neuropsychological evaluation at the time of assessment for treatment efficacy (Visits 1 and 2), as well as at the Baseline Visit. The evaluation occurs outside of the scanner and includes the Buschke Selective Reminding Test (Buschke and Fuld, 1974) and the Verbal Paired Associates subtest, the Logical Memory subtest, the Visual Reproduction subtest of the Wechsler Memory Scale-Revised (WMS-R) (Wechsler, 1997), and the Benton Visual Retention Test, as these tasks are particularly sensitive to medial temporal lobe function and early memory problems (Marquis et al., 2002 and Masur et al., 1994). Additionally, subjects are asked to complete tests of more general cognitive function such as tests to assess general mental status, executive function, attention and general naming ability. All neuropsychological tests are administered by a trained research assistant during a 60-minute session. As the three neuropsychological assessments in this study occur within a time period of 8 weeks, different versions of the neuropsychological tests are used to minimize test specific practice effects. Breaks are provided to the subject as needed.

[2] = Levetiracetam blood plasma levels in aMCI patients; assay type: in vivo; details: human, oral, based on aMCI patients, read-out: effective plasma level range (preferred range goal)
Excerpt: Visit 1: At the end of the first drug/placebo period 2 weeks after the Baseline Visit, the medical, neurological and psychiatric evaluations and cognitive testing are repeated. The subject is also clinically evaluated for suicidal ideation. Blood is drawn again to repeat the standard tests and to determine whether there are any changes related to drug treatment; the subject's blood levetiracetam level is also obtained. All medication dispensed at the Baseline Visit (drug or placebo) is collected and subject compliance with the medication regimen is assessed. The first fMRI session (with cognitive tests) is conducted on the same day, either immediately before or immediately after the clinical assessment. Subjects discontinue first period treatment at this visit.
Visit 2: At approximately 2 weeks after the Washout Visit (i.e., 2 weeks after starting the second treatment period), the medical, neurological and psychiatric evaluations and the cognitive testing are repeated. The subject is clinically evaluated for suicidal ideation. […] All medication dispensed at the Washout Visit is collected and subject compliance with the medication regimen is assessed. […]
Human – in the human studies described in Examples 2 and 3, a subject's levetiracetam blood plasma level was assessed at each visit. […]

[3] = cited from earlier work
[4] = system: reelin in Entorhinal Cortex (EC2); test: Reelin mRNA in situ hybridization in entorhinal cortex (EC2); details: 10 mg/kg/day for 28 days; vs AI-VEH p=0.033

CC[C@@H](C(N)=O)N1CCCC1=O [levetiracetam, (2S)-2-(2-oxopyrrolidin-1-yl)butanamide]
EC activity during memory judgments [1]: increases EC activity | Benton Visual Retention Test performance (aMCI subjects): fail to rescue performance | Buschke Selective Reminding Test-Delayed Recall performance (aMCI subjects): fail to rescue performance | Verbal Paired Associates Test-Delayed Recall performance (aMCI subjects): fail to rescue performance | Verbal Paired Associates Test-Recognition performance (aMCI subjects): fail to rescue performance | concentration at 2 weeks [2]: 2900 to 4400 ng/mL | plasma half-life in elderly ([3]; expected, due to decreased renal function): 9 to 10 h | time to steady state ([3]; multiple twice-daily dosing): 2 days | plasma half-life ([3]; oral administration): approximately 7±1 hour | absorption after oral administration ([3]; oral): rapidly and almost completely absorbed | effect of food on bioavailability ([3]; oral): not affected by food | time of peak plasma concentrations following oral administration ([3]; oral): about 1 hour | reelin mRNA expression in the lateral entorhinal cortex [4]: significantly increased the expression of reelin
